Experimental data as given in PubChem BioAssay (NCI).
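Values below derive from 48-hour exposures of cells grown in 96-well plates, with endpoints linearly interpolated between the two concentrations bracketing the appropriate inhibition level. The concentration for full growth arrest is given as TGI.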 Where a SMILES comes first, the peptide text is derived from it. [ ]: non-standard residue; d: D form. The star is where a group is joined. Bn2Val = CC(C)[C@@H](C(=O)*)N(Cc1ccccc1)Cc1ccccc1; NH(4-F-benzyl) = Fc1ccc(CN*)cc1; NMeV = CN[C@H](C(=O)O)C(C)C; dNMeA = CN[C@H](C)C(=O)O

Experiments:
Assay in all cases: NCI-60 cell line screen, 48 h
A549 NSCLC = tested on: A549 NSCLC
SNB-19 CNS = tested on: SNB-19 CNS
RPMI-8226 leukemia = tested on: RPMI-8226 leukemia
NCI-H23 lung = tested on: NCI-H23 lung
MDA-MB-231 breast = tested on: MDA-MB-231 breast
IGROV1 ovarian = tested on: IGROV1 ovarian
CCRF-CEM leukemia = tested on: CCRF-CEM leukemia
DU-145 prostate = tested on: DU-145 prostate
SK-MEL-28 melanoma = tested on: SK-MEL-28 melanoma
NCI-H522 lung = tested on: NCI-H522 lung
UO-31 renal = tested on: UO-31 renal
NCI-H226 lung = tested on: NCI-H226 lung
BT-549 breast = tested on: BT-549 breast
SNB-75 CNS = tested on: SNB-75 CNS
ACHN renal = tested on: ACHN renal
NCI-H460 lung = tested on: NCI-H460 lung
786-0 renal = tested on: 786-0 renal
COLO 205 colon = tested on: COLO 205 colon
OVCAR-3 ovarian = tested on: OVCAR-3 ovarian
M14 melanoma = tested on: M14 melanoma
CAKI-1 renal = tested on: CAKI-1 renal
RXF 393 renal = tested on: RXF 393 renal
MOLT-4 leukemia = tested on: MOLT-4 leukemia
SF-268 CNS = tested on: SF-268 CNS
HS 578T breast = tested on: HS 578T breast
HCT-116 colon = tested on: HCT-116 colon
MALME-3M melanoma = tested on: MALME-3M melanoma
EKVX NSCLC = tested on: EKVX NSCLC
NCI/ADR-RES ovarian = tested on: NCI/ADR-RES ovarian
SF-295 CNS = tested on: SF-295 CNS
SN12C renal = tested on: SN12C renal
MDA-N = tested on: MDA-N
UACC-257 melanoma = tested on: UACC-257 melanoma
TK-10 renal = tested on: TK-10 renal
HOP-92 NSCLC = tested on: HOP-92 NSCLC
HCC-2998 colon = tested on: HCC-2998 colon
K-562 leukemia = tested on: K-562 leukemia
SR leukemia = tested on: SR leukemia
MCF7 breast = tested on: MCF7 breast
KM12 colon = tested on: KM12 colon
UACC-62 melanoma = tested on: UACC-62 melanoma
MDA-MB-435 = tested on: MDA-MB-435
U251 CNS = tested on: U251 CNS
LOX IMVI melanoma = tested on: LOX IMVI melanoma
HCT-15 colon = tested on: HCT-15 colon
OVCAR-4 ovarian = tested on: OVCAR-4 ovarian
HL-60(TB) leukemia = tested on: HL-60(TB) leukemia
PC-3 prostate = tested on: PC-3 prostate
HOP-62 NSCLC = tested on: HOP-62 NSCLC
HT29 colon = tested on: HT29 colon
SK-MEL-5 melanoma = tested on: SK-MEL-5 melanoma
SF-539 CNS = tested on: SF-539 CNS
OVCAR-8 ovarian = tested on: OVCAR-8 ovarian
A498 renal = tested on: A498 renal
SK-OV-3 ovarian = tested on: SK-OV-3 ovarian
OVCAR-5 ovarian = tested on: OVCAR-5 ovarian
T-47D breast = tested on: T-47D breast
SW-620 colon = tested on: SW-620 colon
SK-MEL-2 melanoma = tested on: SK-MEL-2 melanoma

CN(C)CCCNc1c2c(nc3ccc(Cl)cc13)CCCC2
TGI (A549 NSCLC): 39.6 µM
TGI (SNB-19 CNS): 49.4 µM
TGI (RPMI-8226 leukemia): 28.7 µM
TGI (NCI-H23 lung): 30.6 µM
TGI (MDA-MB-231 breast): 31.2 µM
TGI (IGROV1 ovarian): 37.5 µM
TGI (CCRF-CEM leukemia): 43.7 µM
TGI (DU-145 prostate): 31.9 µM
TGI (SK-MEL-28 melanoma): 35.3 µM
TGI (NCI-H522 lung): 26.8 µM
TGI (UO-31 renal): 28 µM
TGI (NCI-H226 lung): 49.7 µM
TGI (BT-549 breast): 43.7 µM
TGI (SNB-75 CNS): 30.8 µM
TGI (ACHN renal): 45.5 µM
TGI (NCI-H460 lung): 23.9 µM
TGI (786-0 renal): 23.1 µM
TGI (COLO 205 colon): 21.5 µM
TGI (OVCAR-3 ovarian): 34.9 µM
TGI (M14 melanoma): 28.1 µM
TGI (CAKI-1 renal): 65.4 µM
TGI (RXF 393 renal): 28.6 µM
TGI (MOLT-4 leukemia): 20.8 µM
TGI (SF-268 CNS): 28.6 µM
TGI (HS 578T breast): 40.6 µM
TGI (HCT-116 colon): 21.5 µM
TGI (MALME-3M melanoma): 29.7 µM
TGI (EKVX NSCLC): 38.3 µM
TGI (NCI/ADR-RES ovarian): 45 µM
TGI (SF-295 CNS): 29.7 µM
TGI (SN12C renal): 28.9 µM
TGI (MDA-N): 26.9 µM
TGI (UACC-257 melanoma): 30.7 µM
TGI (TK-10 renal): 36.4 µM
TGI (HOP-92 NSCLC): 27.8 µM
TGI (HCC-2998 colon): 16.3 µM
TGI (K-562 leukemia): 12 µM
TGI (SR leukemia): 6.88 µM
TGI (MCF7 breast): 25.5 µM
TGI (KM12 colon): 30.8 µM
TGI (UACC-62 melanoma): 32.1 µM
TGI (MDA-MB-435): 32.3 µM
TGI (U251 CNS): 30.1 µM
TGI (LOX IMVI melanoma): 27.3 µM
TGI (HCT-15 colon): 32.4 µM
TGI (OVCAR-4 ovarian): 43.8 µM
TGI (HL-60(TB) leukemia): 40.1 µM
TGI (PC-3 prostate): 32.8 µM
TGI (HOP-62 NSCLC): 30.5 µM
TGI (HT29 colon): 23.2 µM
TGI (SK-MEL-5 melanoma): 27.8 µM
TGI (SF-539 CNS): 28.5 µM
TGI (OVCAR-8 ovarian): 32.9 µM
TGI (A498 renal): 32.6 µM
TGI (SK-OV-3 ovarian): 66.2 µM
TGI (OVCAR-5 ovarian): 49 µM
TGI (T-47D breast): > 73 µM
TGI (SW-620 colon): 31.8 µM
TGI (SK-MEL-2 melanoma): 34.5 µM

CC(C)[C@H](NC(=O)[C@H](C(C)C)N(Cc1ccccc1)Cc1ccccc1)C(=O)N(C)[C@H](C(=O)N1CCC[C@H]1C(=O)N(C)[C@H](C)C(=O)NCc1ccc(F)cc1)C(C)C (Bn2Val-V[NMeV]P[dNMeA]-{NH(4-F-benzyl)})
TGI (A549 NSCLC): > 25.2 µM
TGI (SNB-19 CNS): > 65.6 µM
TGI (RPMI-8226 leukemia): > 100 µM
TGI (NCI-H23 lung): 32.5 µM
TGI (MDA-MB-231 breast): 11.2 µM
TGI (IGROV1 ovarian): 9.7 µM
TGI (CCRF-CEM leukemia): > 100 µM
TGI (DU-145 prostate): > 100 µM
TGI (SK-MEL-28 melanoma): > 61.7 µM
TGI (NCI-H522 lung): 7.61 µM
TGI (UO-31 renal): 6.42 µM
TGI (NCI-H226 lung): 6.23 µM
TGI (BT-549 breast): 19.1 µM
TGI (SNB-75 CNS): > 37.5 µM
TGI (ACHN renal): 20.6 µM
TGI (NCI-H460 lung): > 38.7 µM
TGI (786-0 renal): 36.8 µM
TGI (COLO 205 colon): 3.28 µM
TGI (OVCAR-3 ovarian): 9.92 µM
TGI (M14 melanoma): > 20.3 µM
TGI (CAKI-1 renal): > 63.1 µM
TGI (RXF 393 renal): 7.9 µM
TGI (MOLT-4 leukemia): > 20.8 µM
TGI (SF-268 CNS): 10 µM
TGI (HS 578T breast): 24.7 µM
TGI (HCT-116 colon): 8.82 µM
TGI (MALME-3M melanoma): 9.23 µM
TGI (EKVX NSCLC): 18.4 µM
TGI (NCI/ADR-RES ovarian): > 100 µM
TGI (SF-295 CNS): 13.6 µM
TGI (SN12C renal): 8.76 µM
TGI (MDA-N): 27.9 µM
TGI (UACC-257 melanoma): > 47.4 µM
TGI (TK-10 renal): > 61.2 µM
TGI (HOP-92 NSCLC): 10.3 µM
TGI (HCC-2998 colon): 12.8 µM
TGI (K-562 leukemia): > 100 µM
TGI (SR leukemia): 4.65 µM
TGI (MCF7 breast): 7.32 µM
TGI (KM12 colon): > 100 µM
TGI (UACC-62 melanoma): 9.66 µM
TGI (MDA-MB-435): > 31.9 µM
TGI (U251 CNS): > 25.6 µM
TGI (LOX IMVI melanoma): 3.52 µM
TGI (HCT-15 colon): > 80.9 µM
TGI (OVCAR-4 ovarian): > 47.4 µM
TGI (HL-60(TB) leukemia): 5.52 µM
TGI (PC-3 prostate): > 25.6 µM
TGI (HOP-62 NSCLC): 39.4 µM
TGI (HT29 colon): 4.18 µM
TGI (SK-MEL-5 melanoma): 4.7 µM
TGI (SF-539 CNS): 7.99 µM
TGI (OVCAR-8 ovarian): > 51.5 µM
TGI (A498 renal): 6.71 µM
TGI (SK-OV-3 ovarian): > 100 µM
TGI (OVCAR-5 ovarian): 15.4 µM
TGI (T-47D breast): > 83.9 µM
TGI (SW-620 colon): > 100 µM
TGI (SK-MEL-2 melanoma): 4.03 µM
